Results reported in US20220031800A1, “PEPTIDES FOR TREATING NON-EXUDATIVE MACULAR DEGENERATION AND OTHER DISORDERS OF THE EYE” (Allegro Pharmaceuticals, LLC, priority 2019, published 2022).
Square brackets hold non-standard residues; d marks the D form. Peptide text beside a SMILES is read from it. Cya = N[C@@H](CS(=O)(=O)O)C(=O)O

Tested on: study eye of subjects with intermediate non-exudative AMD
Test: SD-OCT Analysis 1 (thickness and volume of retinal layers, EZ defect area, GA)
Format: in vivo, human
Details: baseline to Week 32
Procedure: Numerous study assessments were conducted at various time points throughout the study. Included among these study assessments were; refractive eye examinations, determinations of BCVA AND low-luminance BCVA, Lanthony D-15 color vision test, measurement of intraocular pressure (IOP), Indirect ophthalmoscopy/dilated fundus examinations and spectral-domain optical coherence tomography (SD-OCT). Also, blood and saliva samples were obtained from each subject for genetic analysis. The above-listed study assessments were performed at the time points indicated in Table 1, below: The OCT scans were analyzed by two (2) unrelated experts. The mean thickness and mean volume of retinal subfields and layer segments were analyzed at screening (pre-treatment) and at Week 12 for Group 1 subjects and at Week 32 for Group 2 subjects. In addition to the quantitative analysis of OCT images, a qualitative assessment of the OCT images at baseline (pre-treatment) was performed to identify GA anywhere in the retina, in the fovea (1-mm central subfield), and in the foveal center. Quantitative analysis of the OCT images was also performed to measure changes in anatomical measurements over time.

`C[C@@H](O)[C@H](NC(=O)[C@H](CS(=O)(=O)O)NC(=O)CNC(=O)[C@H](CCCNC(=N)N)NC(=O)CN)C(=O)N1CCC[C@H]1C(=O)O` [risuteganib, Glycyl-L-arginylglycyl-3-sulfo-L-alanyl-L-threonyl-L-proline] (H-GRG[Cya]TP-OH) was tested, and the “Change in EZ defect area” value (nonresponder eyes n = 12) was 0.014 mm^2, the “Mean change in mean thickness: Inner retina, central subfield” value (nonresponder eyes n = 12) was −2.250 μm and the “Mean change in mean thickness: Inner retina, foveal center” value (nonresponder eyes n = 12) was 9.917 μm. The “Mean change in mean thickness: Outer retina, central subfield” value (nonresponder eyes n = 12) was −5.417 μm, the “Mean change in mean thickness: Outer retina, foveal center” value (nonresponder eyes n = 12) was −17.833 μm and the “Mean change in mean thickness: Photoreceptor, central subfield” value (nonresponder eyes n = 12) was −1.333 μm. The “Mean change in mean thickness: Photoreceptor, foveal center” value (nonresponder eyes n = 12) was 3.833 μm, the “Mean change in mean thickness: RPEDC, central subfield” value (nonresponder eyes n = 12) was 1.083 μm and the “Mean change in mean thickness: RPEDC, foveal center” value (nonresponder eyes n = 12) was −2.250 μm. For the same compound, the “Mean change in total volume: Inner retina, central subfield” value (nonresponder eyes n = 12) was −0.002 mm^3, the “Mean change in total volume: Outer retina, central subfield” value (nonresponder eyes n = 12) was −0.004 mm^3 and the “Mean change in total volume: Photoreceptor, central subfield” value (nonresponder eyes n = 12) was −0.001 mm^3. The “Mean change in total volume: RPEDC, central subfield” value (nonresponder eyes n = 12) was 0.001 mm^3, the “Change in EZ defect area” value (responder eyes n = 10) was 0.020 mm^2 and the “Mean change in mean thickness: Inner retina, central subfield” value (responder eyes n = 10) was 5.200 μm. The “Mean change in mean thickness: Inner retina, foveal center” value (responder eyes n = 10) was 8.400 μm, the “Mean change in mean thickness: Outer retina, central subfield” value (responder eyes n = 10) was −2.400 μm and the “Mean change in mean thickness: Outer retina, foveal center” value (responder eyes n = 10) was −8.000 μm. The “Mean change in mean thickness: Photoreceptor, central subfield” value (responder eyes n = 10) was −1.000 μm, the “Mean change in mean thickness: Photoreceptor, foveal center” value (responder eyes n = 10) was 3.100 μm and the “Mean change in mean thickness: RPEDC, central subfield” value (responder eyes n = 10) was −9.800 μm. The “Mean change in mean thickness: RPEDC, foveal center” value (responder eyes n = 10) was −8.100 μm, the “Mean change in total volume: Inner retina, central subfield” value (responder eyes n = 10) was 0.004 mm^3 and the “Mean change in total volume: Outer retina, central subfield” value (responder eyes n = 10) was −0.002 mm^3. The “Mean change in total volume: Photoreceptor, central subfield” value (responder eyes n = 10) was −0.001 mm^3, the “Mean change in total volume: RPEDC, central subfield” value (responder eyes n = 10) was −0.008 mm^3 and the “Change in EZ defect area, Difference” value (responder vs nonresponder eyes) was 0.006 mm^2. For the same compound, the “Mean change in mean thickness: Inner retina, central subfield, Difference” value (responder vs nonresponder eyes) was 7.450 μm, the “Mean change in mean thickness: Inner retina, foveal center, Difference” value (responder vs nonresponder eyes) was −1.517 μm and the “Mean change in mean thickness: Outer retina, central subfield, Difference” value (responder vs nonresponder eyes) was 3.017 μm. For the same compound, the “Mean change in mean thickness: Outer retina, foveal center, Difference” value (responder vs nonresponder eyes) was 9.833 μm, the “Mean change in mean thickness: Photoreceptor, central subfield, Difference” value (responder vs nonresponder eyes) was 0.333 μm and the “Mean change in mean thickness: Photoreceptor, foveal center, Difference” value (responder vs nonresponder eyes) was −0.733 μm. For the same compound, the “Mean change in mean thickness: RPEDC, central subfield, Difference” value (responder vs nonresponder eyes) was −10.883 μm, the “Mean change in mean thickness: RPEDC, foveal center, Difference” value (responder vs nonresponder eyes) was −5.850 μm and the “Mean change in total volume: Inner retina, central subfield, Difference” value (responder vs nonresponder eyes) was 0.006 mm^3. The “Mean change in total volume: Outer retina, central subfield, Difference” value (responder vs nonresponder eyes) was 0.003 mm^3, the “Mean change in total volume: Photoreceptor, central subfield, Difference” value (responder vs nonresponder eyes) was 0.000 mm^3 and the “Mean change in total volume: RPEDC, central subfield, Difference” value (responder vs nonresponder eyes) was −0.009 mm^3. For the same compound, the “Change in EZ defect area” value (risuteganib arm n = 22) was 0.015 mm^2, the “Mean change in mean thickness: Inner retina, central subfield” value (risuteganib arm n = 22) was 1.565 μm and the “Mean change in mean thickness: Inner retina, foveal center” value (risuteganib arm n = 22) was 6.696 μm. For the same compound, the “Mean change in mean thickness: Inner retina, inferior subfield” value (risuteganib arm n = 22) was −0.065 μm, the “Mean change in mean thickness: Inner retina, nasal subfield” value (risuteganib arm n = 22) was −0.783 μm and the “Mean change in mean thickness: Inner retina, superior subfield” value (risuteganib arm n = 22) was −3.022 μm. For the same compound, the “Mean change in mean thickness: Inner retina, temporal subfield” value (risuteganib arm n = 22) was 0.217 μm, the “Mean change in mean thickness: Outer retina, central subfield” value (risuteganib arm n = 22) was −3.978 μm and the “Mean change in mean thickness: Outer retina, foveal center” value (risuteganib arm n = 22) was −9.543 μm. For the same compound, the “Mean change in mean thickness: Outer retina, inferior subfield” value (risuteganib arm n = 22) was −2.457 μm, the “Mean change in mean thickness: Outer retina, nasal subfield” value (risuteganib arm n = 22) was −1.196 μm and the “Mean change in mean thickness: Outer retina, superior subfield” value (risuteganib arm n = 22) was −0.065 μm. The “Mean change in mean thickness: Outer retina, temporal subfield” value (risuteganib arm n = 22) was −2.283 μm, the “Mean change in mean thickness: Photoreceptor, central subfield” value (risuteganib arm n = 22) was −1.087 μm and the “Mean change in mean thickness: Photoreceptor, foveal center” value (risuteganib arm n = 22) was 1.717 μm. The “Mean change in mean thickness: Photoreceptor, inferior subfield” value (risuteganib arm n = 22) was −0.239 μm, the “Mean change in mean thickness: Photoreceptor, nasal subfield” value (risuteganib arm n = 22) was −0.087 μm and the “Mean change in mean thickness: Photoreceptor, superior subfield” value (risuteganib arm n = 22) was 0.130 μm. For the same compound, the “Mean change in mean thickness: Photoreceptor, temporal subfield” value (risuteganib arm n = 22) was −0.152 μm, the “Mean change in mean thickness: RPEDC, central subfield” value (risuteganib arm n = 22) was −1.500 μm and the “Mean change in mean thickness: RPEDC, foveal center” value (risuteganib arm n = 22) was −1.652 μm. The “Mean change in mean thickness: RPEDC, inferior subfield” value (risuteganib arm n = 22) was 0.457 μm, the “Mean change in mean thickness: RPEDC, nasal subfield” value (risuteganib arm n = 22) was 0.739 μm and the “Mean change in mean thickness: RPEDC, superior subfield” value (risuteganib arm n = 22) was 1.739 μm. For the same compound, the “Mean change in mean thickness: RPEDC, temporal subfield” value (risuteganib arm n = 22) was 0.870 μm, the “Mean change in total volume: Inner retina, central subfield” value (risuteganib arm n = 22) was 0.001 mm^3 and the “Mean change in total volume: Inner retina, inferior subfield” value (risuteganib arm n = 22) was 0.000 mm^3. For the same compound, the “Mean change in total volume: Inner retina, nasal subfield” value (risuteganib arm n = 22) was −0.001 mm^3, the “Mean change in total volume: Inner retina, superior subfield” value (risuteganib arm n = 22) was −0.005 mm^3 and the “Mean change in total volume: Inner retina, temporal subfield” value (risuteganib arm n = 22) was 0.000 mm^3. For the same compound, the “Mean change in total volume: Outer retina, central subfield” value (risuteganib arm n = 22) was −0.003 mm^3.
